Tests used:
[1] = target: T1, Macrophage migration inhibitory factor (Homo sapiens, UniProt P14174); assay: Inhibition of dopachrome tautomerase activity of human recombinant MIF
T1 sequence (P14174 whole entry): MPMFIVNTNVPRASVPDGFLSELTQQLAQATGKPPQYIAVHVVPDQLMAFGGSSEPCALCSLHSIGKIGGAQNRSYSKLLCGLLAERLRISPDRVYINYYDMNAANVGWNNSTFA

[2] = target: T1, Macrophage migration inhibitory factor; assay: Inhibition of dopachrome tautomerase activity of MIF in human THP1 cells; type: cell-based, THP-1
[3] = target: T1, Macrophage migration inhibitory factor; assay: Inhibition of spontaneous secretion/release/recognition of MIF from freshly isolated human PBMC by ELISA
[4] = target: T2, Macrophage migration inhibitory factor (Homo sapiens) (UniProt P14174); assay: Inhibition of MIF-induced IL6 production in human PBMC at 100 uM by ELISA
T2 sequence (whole entry): T1 sequence (P14174 whole entry)

[5] = target: T2, Macrophage migration inhibitory factor (Homo sapiens); assay: Inhibition of MIF-induced IL1-beta production in human PBMC at 100 uM by ELISA
[6] = target: T2, Macrophage migration inhibitory factor (Homo sapiens); assay: Inhibition of MIF-induced TNFalpha production in human PBMC at 100 uM by ELISA

## Oc1ccc(C2=NOC(c3noc(C(F)(F)F)n3)C2)cc1F (centres undefined)
[1]
  IC50: > 100 µM
[2]
  IC50: 60 µM

## O=C(CCc1nc(C2CC(c3ccc(O)c(F)c3)=NO2)no1)NC1CCCCC1 (centres undefined)
[1]
  IC50: > 100 µM
[2]
  IC50: 25 µM
[3]
  IC50: Not Active

## COc1ccc(C2=NOC(c3noc(C)n3)C2)cc1F (centres undefined)
[2]
  IC50: > 100 µM

## COC(=O)CCc1nc(C2CC(c3ccc(O)c(F)c3)=NO2)no1 (centres undefined)
[1]
  IC50: > 100 µM
[2]
  IC50: 50 µM
[3]
  IC50: Not Active

## COc1ccc(C2=NOC(c3noc(CCC(=O)O)n3)C2)cc1F (centres undefined)
[1]
  IC50: > 100 µM
[2]
  IC50: 12 µM
[3]; read-out: IC50
  IC50: 60 µM

## Oc1ccc(C2=NOC(c3noc(-c4cccc(O)c4O)n3)C2)cc1F (centres undefined)
[1]
  IC50: > 100 µM
[2]
  IC50: 19 µM
[3]
  IC50: Not Active

## O=C1CCC(=O)N1CCC1CC(c2ccc(O)c(F)c2)=NO1 (centres undefined)
[1]
  IC50: 50 µM
[2]
  IC50: 15 µM
[4]
  inhibition: 14%
[5]
  inhibition: 27%
[3]; read-out: IC50
  IC50: 20 µM
[6]
  inhibition: 39%

## CC(C)CC(=O)NCC1CC(c2ccc(O)c(F)c2)=NO1 (centres undefined)
[2]
  IC50: > 100 µM

## COc1ccc(C2=NOC(c3noc(-c4cccc(OC)c4OC)n3)C2)cc1F (centres undefined)
[1]
  IC50: 32 µM
[2]
  IC50: 20 µM
[3]
  IC50: Not Active

## CC(C)(C)C(=O)NCCC1CC(c2ccc(O)c(F)c2)=NO1 (centres undefined)
[1]
  IC50: 22 µM
[2]
  IC50: 28 µM
[4]
  inhibition: 39%
[5]
  inhibition: 50%
[3]; read-out: IC50
  IC50: 15 µM
[6]
  inhibition: 40%

## O=C(NCCC1CC(c2ccc(O)c(F)c2)=NO1)C(F)(F)F (centres undefined)
[1]
  IC50: > 100 µM
[2]
  IC50: 49 µM
[4]
  inhibition: 49%
[5]
  inhibition: 66%
[3]; read-out: IC50
  IC50: 15 µM
[6]
  inhibition: 53%

## O=C1c2ccccc2C(=O)N1CCC1CC(c2ccc(O)c(F)c2)=NO1 (centres undefined)
[1]
  IC50: 0.8 µM
[2]
  IC50: 0.5 µM
[4]
  inhibition: 22%
[5]
  inhibition: 22%
[3]; read-out: IC50
  IC50: 1.5 µM
[6]
  inhibition: 31%

## COc1ccc(C2=NOC(c3noc(C(F)(F)F)n3)C2)cc1F (centres undefined)
[1]
  IC50: 95 µM
[2]
  IC50: 100 µM

## CC(C)CC(=O)NCCC1CC(c2ccc(O)c(F)c2)=NO1 (centres undefined)
[1]
  IC50: 22 µM
[2]
  IC50: 29 µM
[4]
  inhibition: 47%
[5]
  inhibition: 58%
[3]; read-out: IC50
  IC50: 20 µM
[6]
  inhibition: 53%

## CC(C)(C)C(=O)NCC1CC(c2ccc(O)c(F)c2)=NO1 (centres undefined)
[2]
  IC50: > 100 µM

## Oc1ccc(C2=NOC(Cc3noc(C(F)(F)F)n3)C2)cc1F (centres undefined)
[4]
  inhibition: 33%
[5]
  inhibition: 46%
[6]
  inhibition: 34%

## COc1ccc(C2=NOC(c3noc(-c4ccccc4N(C)C(=O)O)n3)C2)cc1F (centres undefined)
[2]
  IC50: > 100 µM

## O=C(NCCC1CC(c2ccc(O)c(F)c2)=NO1)c1ccc(F)cc1 (centres undefined)
[1]
  IC50: 20 µM
[2]
  IC50: 15 µM
[4]
  inhibition: 54%
[5]
  inhibition: 52%
[3]; read-out: IC50
  IC50: 10 µM
[6]
  inhibition: 56%

## O=C1c2ccccc2C(=O)N1CC1CC(c2ccc(O)c(F)c2)=NO1 (centres undefined)
[1]
  IC50: 36 µM
[2]
  IC50: 29 µM
[3]
  IC50: Not Active

## COc1ccc(C2=NOC(Cc3noc(C(F)(F)F)n3)C2)cc1F (centres undefined)
[1]
  IC50: 55 µM
[2]
  IC50: > 100 µM

## Cc1nc(C2CC(c3ccc(O)c(F)c3)=NO2)no1 (centres undefined)
[1]
  IC50: > 100 µM
[2]
  IC50: 60 µM

## CN(C)C(=O)NCC1CC(c2ccc(O)c(F)c2)=NO1 (centres undefined)
[2]
  IC50: > 100 µM

## COC(=O)CC1CC(c2ccc(O)cc2)=NO1 (centres undefined)
[4]
  inhibition: 0%
[5]
  inhibition: 25%
[6]
  inhibition: 25%

## COc1ccc(C2=NOC(c3noc(CCC(=O)NC4CCCCC4)n3)C2)cc1F (centres undefined)
[1]
  IC50: 9.5 µM
[2]
  IC50: 30 µM
[3]
  IC50: Not Active

## O=C1c2ccccc2C(=O)N1CCCC1CC(c2ccc(O)c(F)c2)=NO1 (centres undefined)
[1]
  IC50: 7 µM
[2]
  IC50: 2 µM
[3]
  IC50: Not Active

Reference: ChEMBL document CHEMBL1154029, “Novel derivatives of ISO-1 as potent inhibitors of MIF biological function” (Bioorg Med Chem Lett, 2009)
